Measurements taken from patent publication US20240000872A1, “NOVEL BACTERIOPHAGE THAT LYSES ACINETOBACTER GENUS BACTERIA HAVING RESISTANCE TO ANTIBIOTICS” (priority 2020, published 2024).

System: Acinetobacter baumannii strains
Test: Antibiotic susceptibility test (CLSI disk diffusion test method, read per CLSI 2016); on antibiotic susceptibility S/I/R: key: ‘S’ means susceptible; ‘I’ means intermediate; ‘R’ means resistant; on susceptibility category (S/I/R): key: ‘S’ means susceptible; ‘I’ means intermediate; ‘R’ means resistant
Format: cell-based
Design: antibiotic susceptibility test value / susceptibility test value (number given before S/I/R) / antibiotic susceptibility value: unit not given here

## ampicillin-sulbactam
Host strain YMC16/01/R123
  antibiotic susceptibility value: 32
  susceptibility category (S/I/R): R
  susceptibility test value (number given before S/I/R): 32
Host strain YMC16/01/R198
  antibiotic susceptibility S/I/R: S
  antibiotic susceptibility value: 8
  susceptibility category (S/I/R): S
  susceptibility test value (number given before S/I/R): 8
Host strain YMC16/01/R353
  antibiotic susceptibility value: 16
  susceptibility category (S/I/R): I
  susceptibility test value (number given before S/I/R): 16
Host strain YMC16/01/R380
  antibiotic susceptibility S/I/R: R
  antibiotic susceptibility value: 32
  susceptibility category (S/I/R): R
  susceptibility test value (number given before S/I/R): 32
Host strain YMC16/01/R397
  antibiotic susceptibility S/I/R: R
  antibiotic susceptibility value: 32
  susceptibility category (S/I/R): R
  susceptibility test value (number given before S/I/R): 32
Host strain YMC16/01/R405
  antibiotic susceptibility value: 16
  susceptibility category (S/I/R): I
  susceptibility test value (number given before S/I/R): 16
Host strain YMC16/03/R4461
  antibiotic susceptibility S/I/R: S
  antibiotic susceptibility value: 4
  susceptibility category (S/I/R): S
  susceptibility test value (number given before S/I/R): 4
Host strain YMC16/05/R2210
  antibiotic susceptibility value: 16
  susceptibility category (S/I/R): I
  susceptibility test value (number given before S/I/R): 16
Host strain YMC16/07/R2512
  antibiotic susceptibility value: 16
  susceptibility category (S/I/R): I
  susceptibility test value (number given before S/I/R): 16
Host strain YMC16/09/R2471
  antibiotic susceptibility S/I/R: R
  antibiotic susceptibility value: 32
  susceptibility category (S/I/R): R
  susceptibility test value (number given before S/I/R): 32
Host strain YMC16/10/R2537
  antibiotic susceptibility value: 16
  susceptibility category (S/I/R): I
  susceptibility test value (number given before S/I/R): 16
Host strain YMC16/12/B11422
  antibiotic susceptibility S/I/R: R
  antibiotic susceptibility value: 32
  susceptibility category (S/I/R): R
  susceptibility test value (number given before S/I/R): 32
Host strain YMC16/12/B11449
  antibiotic susceptibility S/I/R: R
  antibiotic susceptibility value: 32
  susceptibility category (S/I/R): R
  susceptibility test value (number given before S/I/R): 32
Host strain YMC16/12/B13325
  antibiotic susceptibility value: 16
  susceptibility category (S/I/R): I
  susceptibility test value (number given before S/I/R): 16
Host strain YMC16/12/P503
  antibiotic susceptibility S/I/R: R
  antibiotic susceptibility value: 32
  susceptibility category (S/I/R): R
  susceptibility test value (number given before S/I/R): 32
Host strain YMC16/12/R4637
  antibiotic susceptibility S/I/R: R
  antibiotic susceptibility value: 32
  susceptibility category (S/I/R): R
  susceptibility test value (number given before S/I/R): 32
Host strain YMC17/01/B8053
  antibiotic susceptibility S/I/R: S
  antibiotic susceptibility value: 8
  susceptibility category (S/I/R): S
  susceptibility test value (number given before S/I/R): 8
Host strain YMC17/01/B10087
  antibiotic susceptibility value: 16
  susceptibility category (S/I/R): I
  susceptibility test value (number given before S/I/R): 16
Host strain YMC17/01/B12075
  antibiotic susceptibility value: 16
  susceptibility category (S/I/R): I
  susceptibility test value (number given before S/I/R): 16
Host strain YMC17/01/B13454
  antibiotic susceptibility S/I/R: R
  antibiotic susceptibility value: 32
  susceptibility category (S/I/R): R
  susceptibility test value (number given before S/I/R): 32
Host strain YMC17/01/P518
  antibiotic susceptibility value: 16
  susceptibility category (S/I/R): I
  susceptibility test value (number given before S/I/R): 16
Host strain YMC17/01/R2812
  antibiotic susceptibility S/I/R: R
  antibiotic susceptibility value: 32
  susceptibility category (S/I/R): R
